Reference: PubChem BioAssay AID1259407 (Chemical Carcinogenesis Research Information System (CCRIS), 2018)
Calls of active or inactive are those of the source. No rule for the calls is given here.

System: CCRIS mutagenicity, Ames/micronucleus/aberration tests
Assay: CCRIS mutagenicity studies
[1] = Test System: AMES SALMONELLA TYPHIMURIUM, Strain/Indicator: TA97, Metabolic Activation: HAMSTER, LIVER, S-9, AROCLOR 1254 (10 OR 30%), Method: PREINCUBATION
[2] = Test System: AMES SALMONELLA TYPHIMURIUM, Strain/Indicator: TA97, Metabolic Activation: NONE, Method: PREINCUBATION
[3] = Test System: AMES SALMONELLA TYPHIMURIUM, Strain/Indicator: TA97, Metabolic Activation: RAT, LIVER, S-9, AROCLOR 1254 (10 OR 30%), Method: PREINCUBATION
[4] = Test System: AMES SALMONELLA TYPHIMURIUM, Strain/Indicator: TA98, Metabolic Activation: HAMSTER, LIVER, S-9, AROCLOR 1254 (10 OR 30%), Method: PREINCUBATION
[5] = Test System: AMES SALMONELLA TYPHIMURIUM, Strain/Indicator: TA98, Metabolic Activation: NONE, Method: PREINCUBATION
[6] = Test System: AMES SALMONELLA TYPHIMURIUM, Strain/Indicator: TA98, Metabolic Activation: RAT, LIVER, S-9, AROCLOR 1254 (10 OR 30%), Method: PREINCUBATION
[7] = Test System: AMES SALMONELLA TYPHIMURIUM, Strain/Indicator: TA100, Metabolic Activation: HAMSTER, LIVER, S-9, AROCLOR 1254 (10 OR 30%), Method: PREINCUBATION
[8] = Test System: AMES SALMONELLA TYPHIMURIUM, Strain/Indicator: TA100, Metabolic Activation: NONE, Method: PREINCUBATION
[9] = Test System: AMES SALMONELLA TYPHIMURIUM, Strain/Indicator: TA100, Metabolic Activation: RAT, LIVER, S-9, AROCLOR 1254 (10 OR 30%), Method: PREINCUBATION
[10] = Test System: AMES SALMONELLA TYPHIMURIUM, Strain/Indicator: TA1535, Metabolic Activation: HAMSTER, LIVER, S-9, AROCLOR 1254 (10 OR 30%), Method: PREINCUBATION
[11] = Test System: AMES SALMONELLA TYPHIMURIUM, Strain/Indicator: TA1535, Metabolic Activation: NONE, Method: PREINCUBATION
[12] = Test System: AMES SALMONELLA TYPHIMURIUM, Strain/Indicator: TA1535, Metabolic Activation: RAT, LIVER, S-9, AROCLOR 1254 (10 OR 30%), Method: PREINCUBATION
[13] = Test System: E. COLI, Strain/Indicator: WP2 UVRA, Metabolic Activation: NONE, Method: STANDARD PLATE
[14] = Test System: E. COLI, Strain/Indicator: WP2 UVRA, Metabolic Activation: RAT, LIVER, S-9, AROCLOR 1254, Method: STANDARD PLATE
[15] = Test System: AMES SALMONELLA TYPHIMURIUM, Strain/Indicator: TA98, Metabolic Activation: NONE, Method: STANDARD PLATE
[16] = Test System: AMES SALMONELLA TYPHIMURIUM, Strain/Indicator: TA102, Metabolic Activation: NONE, Method: PREINCUBATION

**Q.** What does the source list for Cc1noc(NS(=O)(=O)c2ccc(N)cc2)c1C?
**A.** mutagenic call (End Point: IN VITRO CHROMOSOMAL ABERRATIONS, Test System: CHO CELLS, Metabolic Activation: NONE): inactive; negative; mutagenic call (End Point: IN VITRO CHROMOSOMAL ABERRATIONS, Test System: CHO CELLS, Metabolic Activation: RAT, LIVER, S-9, AROCLOR 1254): inactive; negative; mutagenic call [1]: inactive; negative; mutagenic call [2]: inactive; negative; mutagenic call [3]: inactive; negative; mutagenic call [4]: inactive; negative; mutagenic call [5]: inactive; negative; mutagenic call [6]: inactive; negative; mutagenic call [7]: inactive; negative; mutagenic call [8]: inactive; negative; mutagenic call [9]: inactive; negative; mutagenic call [10]: inactive; negative; mutagenic call [11]: inactive; negative; mutagenic call [12]: inactive; negative; mutagenic call (Test System: E. COLI, Strain/Indicator: WP2 UVRA, Metabolic Activation: HAMSTER, LIVER, S-9, AROCLOR 1254, Method: STANDARD PLATE): inactive; negative; mutagenic call (Test System: E. COLI, Strain/Indicator: WP2 UVRA, Metabolic Activation: HAMSTER, LIVER, S-9, Method: STANDARD PLATE): inactive; negative; mutagenic call (Test System: E. COLI, Strain/Indicator: WP2 UVRA, Metabolic Activation: MOUSE, LIVER, S-9, AROCLOR 1254, Method: STANDARD PLATE): inactive; negative; mutagenic call (Test System: E. COLI, Strain/Indicator: WP2 UVRA, Metabolic Activation: MOUSE, LIVER, S-9, Method: STANDARD PLATE): inactive; negative; mutagenic call [13]: inactive; negative; mutagenic call [14]: inactive; negative; mutagenic call (Test System: E. COLI, Strain/Indicator: WP2 UVRA, Metabolic Activation: RAT, LIVER, S-9, Method: STANDARD PLATE): inactive; negative

**Q.** With CCc1cccc2c3c([nH]c12)C(CC)(CC(=O)O)OCC3 (centres undefined) as the molecule, how does the mutagenic call [15] read?
**A.** inactive; negative

**Q.** What about the mutagenic call (Test System: AMES SALMONELLA TYPHIMURIUM, Strain/Indicator: TA98, Metabolic Activation: RAT, LIVER, S-9, AROCLOR 1254, Method: STANDARD PLATE) of the same molecule?
**A.** inactive; negative

**Q.** What about the mutagenic call (Test System: AMES SALMONELLA TYPHIMURIUM, Strain/Indicator: TA100, Metabolic Activation: NONE, Method: STANDARD PLATE) of the same molecule?
**A.** inactive; negative

**Q.** What about the mutagenic call (Test System: AMES SALMONELLA TYPHIMURIUM, Strain/Indicator: TA100, Metabolic Activation: RAT, LIVER, S-9, AROCLOR 1254, Method: STANDARD PLATE) of the same molecule?
**A.** inactive; negative

**Q.** And the mutagenic call (Test System: AMES SALMONELLA TYPHIMURIUM, Strain/Indicator: TA1535, Metabolic Activation: NONE, Method: STANDARD PLATE)?
**A.** inactive; negative

**Q.** And the mutagenic call (Test System: AMES SALMONELLA TYPHIMURIUM, Strain/Indicator: TA1535, Metabolic Activation: RAT, LIVER, S-9, AROCLOR 1254, Method: STANDARD PLATE)?
**A.** inactive; negative

**Q.** And the mutagenic call (Test System: AMES SALMONELLA TYPHIMURIUM, Strain/Indicator: TA1537, Metabolic Activation: NONE, Method: STANDARD PLATE)?
**A.** inactive; negative

**Q.** And the mutagenic call (Test System: AMES SALMONELLA TYPHIMURIUM, Strain/Indicator: TA1537, Metabolic Activation: RAT, LIVER, S-9, AROCLOR 1254, Method: STANDARD PLATE)?
**A.** inactive; negative

**Q.** And the mutagenic call [13]?
**A.** inactive; negative

**Q.** And the mutagenic call [14]?
**A.** inactive; negative

**Q.** How did the mutagenic call [1] turn out when O=C(O)/C=C/C(=O)O was run?
**A.** inactive; negative

**Q.** What about the mutagenic call [2] of the same molecule?
**A.** inactive; negative

**Q.** And the mutagenic call [3]?
**A.** inactive; negative

**Q.** What about the mutagenic call (Test System: AMES SALMONELLA TYPHIMURIUM, Strain/Indicator: TA97, Metabolic Activation: RAT, LIVER, S-9, AROCLOR 1254, Method: PREINCUBATION) of the same molecule?
**A.** inactive; negative

**Q.** What about the mutagenic call [4] of the same molecule?
**A.** inactive; negative

**Q.** What about the mutagenic call [5] of the same molecule?
**A.** inactive; negative

**Q.** What about the mutagenic call [6] of the same molecule?
**A.** inactive; negative

**Q.** What about the mutagenic call [7] of the same molecule?
**A.** inactive; negative

**Q.** And the mutagenic call [8]?
**A.** inactive; negative

**Q.** And the mutagenic call [9]?
**A.** inactive; negative

**Q.** And the mutagenic call [16]?
**A.** inactive; negative

**Q.** What about the mutagenic call (Test System: AMES SALMONELLA TYPHIMURIUM, Strain/Indicator: TA102, Metabolic Activation: RAT, LIVER, S-9, AROCLOR 1254, Method: PREINCUBATION) of the same molecule?
**A.** inactive; negative

**Q.** And the mutagenic call [10]?
**A.** inactive; negative

**Q.** And the mutagenic call [11]?
**A.** inactive; negative

**Q.** And the mutagenic call [12]?
**A.** inactive; negative

**Q.** What about the mutagenic call (Test System: MOUSE LYMPHOMA, Strain/Indicator: L5178Y (TK+/TK-), Metabolic Activation: NONE, Method: SUSPENSION/PLATE) of the same molecule?
**A.** active; positive. reevaluation of results: positive

**Q.** And the mutagenic call (Test System: MOUSE LYMPHOMA, Strain/Indicator: L5178Y (TK+/TK-), Metabolic Activation: RAT, LIVER, S-9, AROCLOR 1254, Method: SUSPENSION/PLATE)?
**A.** active; positive. reevaluation of results: positive

**Q.** Which mutagenic call [15] does the source give for O=C1NCCN1c1nccs1 here?
**A.** active; positive

**Q.** What does the source list for C[C@@H]1C[C@]2(O[C@@H]2C)C(=O)O[C@@H]2CCN(C)C/C=C(/COC(=O)[C@]1(C)O)C2=O?
**A.** mutagenic call (Test System: AMES SALMONELLA TYPHIMURIUM, Strain/Indicator: TA100, Metabolic Activation: HAMSTER, LIVER, S-9, PCB, Method: PREINCUBATION): inactive; negative; by authors criteria results are positive; mutagenic call (Test System: AMES SALMONELLA TYPHIMURIUM, Strain/Indicator: TA100, Metabolic Activation: RAT, LIVER, S-9, PCB, Method: PREINCUBATION): active; positive; mutagenic call (Test System: UDS RAT HEPATOCYTES, Strain/Indicator: THY INCORP, Metabolic Activation: NONE, Method: AUTORADIOGRAPHY): active; positive

**Q.** With COc1cc(OC)c(Cl)c(-n2c(-c3ccccc3)cc(=O)c(C)c2-c2ccc(F)cc2)c1 as the molecule, how does the mutagenic call [5] read?
**A.** inactive; negative

**Q.** And the mutagenic call (Test System: AMES SALMONELLA TYPHIMURIUM, Strain/Indicator: TA98, Metabolic Activation: S-9, Method: PREINCUBATION)?
**A.** inactive; negative

**Q.** And the mutagenic call [8]?
**A.** inactive; negative

**Q.** What about the mutagenic call (Test System: AMES SALMONELLA TYPHIMURIUM, Strain/Indicator: TA100, Metabolic Activation: S-9, Method: PREINCUBATION) of the same molecule?
**A.** inactive; negative

**Q.** What about the mutagenic call [16] of the same molecule?
**A.** inactive; negative

**Q.** What about the mutagenic call (Test System: AMES SALMONELLA TYPHIMURIUM, Strain/Indicator: TA102, Metabolic Activation: S-9, Method: PREINCUBATION) of the same molecule?
**A.** inactive; negative

**Q.** What about the mutagenic call [11] of the same molecule?
**A.** inactive; negative

**Q.** What about the mutagenic call (Test System: AMES SALMONELLA TYPHIMURIUM, Strain/Indicator: TA1535, Metabolic Activation: S-9, Method: PREINCUBATION) of the same molecule?
**A.** inactive; negative

**Q.** And the mutagenic call (Test System: AMES SALMONELLA TYPHIMURIUM, Strain/Indicator: TA1537, Metabolic Activation: NONE, Method: PREINCUBATION)?
**A.** inactive; negative

**Q.** What about the mutagenic call (Test System: AMES SALMONELLA TYPHIMURIUM, Strain/Indicator: TA1537, Metabolic Activation: S-9, Method: PREINCUBATION) of the same molecule?
**A.** inactive; negative

**Q.** What about the mutagenic call (Test System: E. COLI, Strain/Indicator: WP2 UVRA, Metabolic Activation: NONE, Method: PREINCUBATION) of the same molecule?
**A.** inactive; negative

**Q.** What about the mutagenic call (Test System: E. COLI, Strain/Indicator: WP2 UVRA, Metabolic Activation: S-9, Method: PREINCUBATION) of the same molecule?
**A.** inactive; negative
